According to patent US20220054476A1, “SUSTAINED LOCAL DRUG LEVELS FOR INNATE IMMUNE AGONISTS” (Ascendis Pharma Oncology Division A/S, priority 2019, published 2022):
Marks after values point to notes of the source that are not given here.

How the values were obtained:
[1] = system: IFNγ, IL-6, CCL2/MCP-1, TNFα in plasma; test: In vivo cytokine induction, plasma cytokine levels (Example 12); design: species or system BALB/C mice; conditions: for IFNγ plasma level, Mean: values at/below LLOQ set to 0.01
Description: Mice were subcutaneously implanted with 3×10^5 CT26 tumor cells in the left and right flanks. […] Hydrogels were administered as suspensions in PBST buffer. K2 EDTA-preserved blood samples were collected by retro-orbital bleed at various time points following drug administration and plasma was isolated following centrifugation at 2000×g for 5 minutes at 4° C. and frozen. Plasma samples were stored at −80° C. Plasma was thawed and undiluted samples were assessed for cytokine levels using the 36-Plex Mouse ProcartaPlex™ Cytokine Panel 1A (ThermoFisher Scientific) following manufacturer's recommendations. Cytokines were measured on the Bio-Plex 200 (BioRad) following kit instructions.

[2] = Resiquimod concentration in plasma samples after intratumoral injection (Example 17); assay type: in vivo, BALB/C mice; conditions: female, BALB/C, mouse, other: intratumoral injection, 10 μg
Description: Hydrogels were administered as suspensions in PTP buffer. […] Tumors were excised, weighed and snap frozen.

[3] = system: Ly-6C^+ antigen presenting cells, MHCII^+ antigen presenting cells, CD8^+, Ly-6C^+ CD8^+ and CD4^+ T cells of tumor draining lymph nodes; test: Flow cytometric profiling of tumor draining lymph node immune cells (Example 15); assay type: in vivo, BALB/C mice; conditions: 7 days after randomization
Description: Hydrogels were administered as suspension in PTP buffer. Some cohorts were further treated with 20 μg human IL-2 (Peprotech, Rocky Hill, N.J.), intraperitoneally (I.P.), twice a day for 5 days. Mice were sacrificed 7 days after randomization (D0). Following sacrifice, tumor draining lymph nodes were isolated from both flanks and were dissociated mechanically to generate a single cell suspension at a cell concentration of 1×10^6 cells per sample. Cell suspensions were centrifuged at 300 g for 5 minutes. Supernatants were discarded and cells were resuspended in FACS buffer with 1 μg/ml Fc-Block and incubated at 4° C. for 10 minutes in the dark. Surface marker antibody mixtures (antibody concentration: 10 μg/mL) in FACS buffer were added to each sample and samples were incubated in the dark at 4° C. for 30 minutes. Cells were centrifuged at 300 g for 5 minutes and supernatants were discarded. Cells were washed and then resuspended with FACS buffer before cytometer collection.
After collection, FACS data was analyzed using FlowJo Version 10.6.1. Compensation was digitally adjusted using single antibody-stained beads. Samples with less than 90% viability, as determined by LiveDead cell staining, were excluded from the analysis. Cells were defined using the following gating strategy: • 1) Ly-6C^+ antigen presenting cells: FSC-H/FSC-A Singlets/LiveDead^−/CD45^+/CD3^−/CD335^−/Ly-6C^+ • 2) Ly-6C^+ MHCII^+ antigen presenting cells: FSC-H/FSC-A Singlets/LiveDead^−/CD45^+/CD3^−/CD335^−/Ly-6C^+/IA/IE (MHCII)^+ • 3) CD8^+ T cells: FSC-H/FSC-A Singlets/LiveDead^−/CD45^+/CD3^+/CD8 single positive • 4) Ly-6C^+ CD8^+ T cells: FSC-H/FSC-A Singlets/LiveDead^−/CD45^+/CD3^+/CD8 single positive/Ly-6C^+

[4] = system: cytokine and chemokine genes (Il1a, Ccl3, Il1b, Cxcl2, Ccl2, Ccl4, Il10, Ifna4, Cxcl1, Cxcl10, Tnf) in PBMC; test: PBMC gene expression 6 hours post-treatment, qPCR (Example 17); assay type: in vivo, BALB/C mice; design: key to Cxcl2 gene expression, Mean (2^ΔΔCT) / Ccl2 gene expression, Mean (2^ΔΔCT) / Ccl4 gene expression, Mean (2^ΔΔCT) / Ifna4 gene expression, Mean (2^ΔΔCT) / Cxcl1 gene expression, Mean (2^ΔΔCT) / Cxcl10 gene expression, Mean (2^ΔΔCT) / Il1a gene expression, Mean (2^ΔΔCT) / Tnf gene expression, Mean (2^ΔΔCT): fold change vs untreated, 2^-ΔΔCT, normalized to B2M/UBB/GAPDH
Description: Hydrogels were administered as suspensions in […]. […] Tumors were excised, weighed and snap frozen. […] For PBMC isolations, approximately 600 μl of whole blood was collected via cardiac puncture. The collected whole blood from each individual mouse was diluted with a 1:1 ratio of pre-warmed PBS supplemented with 2% Fetal Bovine Serum (FBS). Then an equal volume of Histopaque-1083 was added to a new sterile 15 mL conical tube, where the diluted whole blood was layered over the Histopaque-1083. The mixture was then centrifuged at 400 g for 30 minutes. The top plasma layer was discarded, and the white translucent interlayer (mononuclear cells) was carefully transferred to a new sterile centrifuge tube. The mononuclear cells were then washed with PBS supplemented with 2% FBS and then were spun down at 250 g for 10 minutes. Afterwards, the cells were lysed with 2 ml of Ammonium-Chloride-Potassium (ACK) lysis buffer (Gibco) for 5 minutes at room temperature to get rid of the red blood cells following manufacturer's instruction. Subsequently, the cells were washed twice with PBS supplemented with 2% FBS and were centrifuged at 250 g for 10 minutes. Then, the supernatant was removed and the PBMC cell pellet was lysed in RLT buffer (Qiagen) and stored at −80° C. before being proceeded to RNA extraction and isolation. Lysates from untreated control samples and 6 hour treated samples were thawed and RNA was isolated using the RNeasy Mini Kit (QIAGEN) following manufacturer's recommendations. Following the first column washing step, DNA was digested directly on the column using the RNase-free DNase Set (TIANGEN) following manufacturer's recommendations. RNA was eluted with RNase-free water. RNA concentrations were measured using a NanoDrop (ThermoFisher) and then adjusted to 200 ng/mL with RNase-free water. RNA quality was assessed using a NanoDrop (ThermoFisher). […] Reverse transcription was performed using random primers, 10 mM dNTP mix, and RNase inhibitor (TIANGEN). Reverse transcription was performed with the following thermal steps: 25° C. for 10 minutes, 37° C. for 120 minutes, 55° C. for 5 minutes. 200 ng of cDNA was used for quantitative PCR using the RT^2 SYBR Green ROX qPCR Master mix (2×) kit (QIAGEN) following manufacturer's recommendations. Probe sets used for qPCR reactions are as follows: [table] Cycle thresholds (CT) were collected using a 384-well platform ABI-7900H real-time qPCR system (Applied Biosystems). B2M, Ubb and GAPDH were used as housekeeping control genes. Data is reported as the average of the 2^-ΔΔCT values for each treatment. 2^-ΔΔCT values were calculated with the following formula: 2^-ΔΔCT=2^−(ΔCT(treated)−ΔCT(untreated)) ΔCT(treated)═CT(treated)−CT (average treated housekeeping) where CT(treated)═CT of the gene of interest of a sample triplicate in the treatment group and CT (treated housekeeping)=Total average CT of the B2M, UBB and GAPDH housekeeping genes of the same sample triplicate in the same treatment group. ΔCT(untreated)═CT (untreated)−CT (untreated housekeeping) where CT (untreated)=average of the CTs of the untreated triplicates at the same timepoint as the CT(treated) comparator and CT (untreated housekeeping)=Total average CT of the B2M, UBB and GAPDH housekeeping genes of the untreated triplicates. For each gene, 3 technical replicates were analyzed per biological replicate. Undetermined technical replicate CT values were recorded as zero ΔCT values. 4-5 biological replicates were assessed in total.

in vivo = test: in vivo; design: species or system WISTAR rats; conditions: male, Wistar, rat, sc, 25 ug; for half-life: t1/2 (biphasic)
Description: Hydrogels were suspended (ca. 6% wt/v) PBST buffer at pH 7.4. […] Blood samples were withdrawn and used for plasma generation over the course of 28 d. […] Plasma concentration profiles were generated and analyzed with Phoenix WinNonlin software (Certara, Princeton, N.J., USA).

CT26 tumor cells = test: In vivo anti-tumor efficacy, absolute tumor volumes (Example 11); design: species or system BALB/C mice; conditions: single intratumoral dose (4: 20 μg; 13c: 50 μL)
Description: Mice were subcutaneously implanted with 3×10^5 CT26 tumor cells in the left and right flanks. […] Hydrogels were administered as suspensions in PBST buffer. Following treatment initiation, anti-tumor efficacy was assessed by determination of tumor volumes at various time points from tumor size measurements with a caliper. Tumor volumes were calculated according to the formula: Tumor volume=(L×W^2)×0.5 where L is the length of the tumor and W the width (both in mm). Mice were removed from the study once tumors were greater than 1500 mm^3.

[5] = 1 h post-treatment, single intratumoral dose
[6] = 3 h post-treatment, single intratumoral dose
[7] = 6 h post-treatment, single intratumoral dose
[8] = 10 h post-treatment, single intratumoral dose
[9] = 24 h post-treatment, single intratumoral dose

- concentration at 0 h ([2]; 0 hours): 210 ng/mL
- concentration at 6 h ([2]; 6 hours): 0.36 ng/mL
- concentration at 22 h ([2]; 22 hours): 0.022 ng/mL
- concentration at 72 h ([2]; 72 hours): 0.014 ng/mL
- AUC (in vivo): 65.4 ng·h/mL
- Cmax (in vivo): 23.1 ng/mL
- half-life (in vivo; first value): 90 min
- half-life (in vivo; second value): 600 min
Compound: CCOCc1nc2c(N)nc3ccccc3c2n1CC(C)(C)O [Compound 4, Resiquimod]
- CCL2/MCP-1 plasma level, Mean [1, 5]: 357.83 pg/mL
- IL-6 plasma level, Mean [1, 5]: 3618.87†, ‡ pg/mL
- TNFα plasma level, Mean [1, 5]: 830.84 pg/mL
- IFNγ plasma level, Mean ([1]; 1 h post-treatment, single intratumoral dose (4: 20 μs; 13c: 50 μL)): 4.04 pg/mL
- CCL2/MCP-1 plasma level, Mean [1, 6]: 4230.35†, ‡ pg/mL
- IL-6 plasma level, Mean [1, 6]: 1739.75†, ‡ pg/mL
- TNFα plasma level, Mean [1, 6]: 136.25 pg/mL
- IFNγ plasma level, Mean [1, 6]: 15.49†, ‡ pg/mL
- CCL2/MCP-1 plasma level, Mean [1, 7]: 1039.17†, ‡ pg/mL
- IL-6 plasma level, Mean [1, 7]: 88.59 pg/mL
- TNFα plasma level, Mean [1, 7]: 35.49 pg/mL
- IFNγ plasma level, Mean [1, 7]: 40.72†, ‡ pg/mL
- CCL2/MCP-1 plasma level, Mean [1, 8]: 847.07† pg/mL
- IL-6 plasma level, Mean [1, 8]: 154.51 pg/mL
- TNFα plasma level, Mean [1, 8]: 43.32 pg/mL
- IFNγ plasma level, Mean [1, 8]: 28.19†, ‡ pg/mL
- CCL2/MCP-1 plasma level, Mean [1, 9]: 92.58 pg/mL
- IL-6 plasma level, Mean [1, 9]: 44.71 pg/mL
- TNFα plasma level, Mean [1, 9]: 9.74 pg/mL
- IFNγ plasma level, Mean [1, 9]: 2.38 pg/mL
- Frequency of CD4^+ T cells of CD3^+ T cells, Mean ([3]; injected right flank tumor): 69.1%
- Frequency of CD8^+ T cells of CD3^+ T cells, Mean ([3]; injected right flank tumor): 29.23%
- Frequency of IA-IE (MHCII)^+ antigen presenting cells of Ly-6C^+ antigen presenting cells, Mean ([3]; injected right flank tumor): 69.63%
- Frequency of Ly-6C^+ T cells of CD8^+ T cells, Mean ([3]; injected right flank tumor): 53.7%
- Frequency of Ly-6C^+ antigen presenting cells of non-T cells, Mean ([3]; injected right flank tumor): 2.5%
- Frequency of CD4^+ T cells of CD3^+ T cells, Mean ([3]; uninjected left flank tumor): 69.25%
- Frequency of CD8^+ T cells of CD3^+ T cells, Mean ([3]; uninjected left flank tumor): 29%
- Frequency of IA-IE (MHCII)^+ antigen presenting cells of Ly-6C^+ antigen presenting cells, Mean ([3]; uninjected left flank tumor): 35.05%
- Frequency of Ly-6C^+ T cells of CD8^+ T cells, Mean ([3]; uninjected left flank tumor): 48%
- Frequency of Ly-6C^+ antigen presenting cells of non-T cells, Mean ([3]; uninjected left flank tumor): 7.8%
- Ccl2 gene expression, Mean (2^ΔΔCT) ([4]; qPCR): 6.75
- Ccl3 gene expression, Mean (2^ΔΔCT) ([4]; qPCR): 1.43†
- Ccl4 gene expression, Mean (2^ΔΔCT) ([4]; qPCR): 1.31
- Cxcl1 gene expression, Mean (2^ΔΔCT) ([4]; qPCR): 7.41
- Cxcl2 gene expression, Mean (2^ΔΔCT) ([4]; qPCR): 35.37
- Cxcl10 gene expression, Mean (2^ΔΔCT) ([4]; qPCR): 45.38
- Ifna4 gene expression, Mean (2^ΔΔCT) ([4]; qPCR): 2.97
- Il1a gene expression, Mean (2^ΔΔCT) ([4]; qPCR): 0.41
- Il1b gene expression, Mean (2^ΔΔCT) ([4]; qPCR): 3.71†
- Il10 gene expression, Mean (2^ΔΔCT) ([4]; qPCR): 2.77†
- Tnf gene expression, Mean (2^ΔΔCT) ([4]; qPCR): 4.64
- Ccl2 Fold change (4/13i) ([4]; ratio of mean 4 to mean 13i): 2.82
- Ccl3 Fold change (4/13i) ([4]; ratio of mean 4 to mean 13i): 1.64
- Ccl4 Fold change (4/13i) ([4]; ratio of mean 4 to mean 13i): 1.74
- Cxcl1 Fold change (4/13i) ([4]; ratio of mean 4 to mean 13i): 11.54
- Cxcl2 Fold change (4/13i) ([4]; ratio of mean 4 to mean 13i): 6.43
- Cxcl10 Fold change (4/13i) ([4]; ratio of mean 4 to mean 13i): 21.41
- Ifna4 Fold change (4/13i) ([4]; ratio of mean 4 to mean 13i): 20.48
- Il1a Fold change (4/13i) ([4]; ratio of mean 4 to mean 13i): 1.78
- Il1b Fold change (4/13i) ([4]; ratio of mean 4 to mean 13i): 7.92
- Il10 Fold change (4/13i) ([4]; ratio of mean 4 to mean 13i): 2.29
- Tnf Fold change (4/13i) ([4]; ratio of mean 4 to mean 13i): 4.45
- Absolute Tumor Volumes, Mean (CT26 tumor cells; day 0 post-treatment): 88.82 mm^3
- Absolute Tumor Volumes, Mean (CT26 tumor cells; day 2 post-treatment): 108.44 mm^3
- Absolute Tumor Volumes, Mean (CT26 tumor cells; day 4 post-treatment): 128.42 mm^3
- Absolute Tumor Volumes, Mean (CT26 tumor cells; day 7 post-treatment): 316.07 mm^3
- Absolute Tumor Volumes, Mean (CT26 tumor cells; day 9 post-treatment): 549.72 mm^3
- Absolute Tumor Volumes, Mean (CT26 tumor cells; day 11 post-treatment): 957.90 mm^3
- Absolute Tumor Volumes, Mean (CT26 tumor cells; day 14 post-treatment): 1220.96 mm^3
